Patent US11028086B2, “Pyrido-imidazo rifamycins” (Biofer S.p.A., priority 2017, dated 2021)
≈ marks a conversion by molar mass, not a printed value.

Legend:
Assay type in all cases: cell-based
[1] = tested on: Escherichia Coli ATCC 25922; experiment: MIC by serial dilution, Strain C; details: ATCC25922, range between last concentration with growth and first without growth
Procedure: (§1) The MICs were calculated using the serial dilution method, and are expressed as the range between the last concentration at which the bacterial strain grows and the first concentration at which the strain tested no longer grows.

[2] = tested on: Staphylococcus aureus IM149; experiment: MIC by serial dilution, Strain A; details: for MIC: range between last concentration with growth and first without growth
Procedure: as §1

[3] = tested on: Bacillus Subtilis ATCC 6633; experiment: MIC by serial dilution, Strain B; details: ATCC6633, range between last concentration with growth and first without growth
Procedure: as §1

Escherichia Coli NK12 = experiment: MIC by serial dilution, Strain D; details: COLINK12, range between last concentration with growth and first without growth
Procedure: as §1

[4] = tested on: Gram-positive and Gram-negative strains; experiment: Antibacterial activity, overall statements on the MIC test
Procedure: as §1

Row | Structure (SMILES) | MIC [1] [µg/mL] | MIC [2] [µg/mL] | MIC [3] [µg/mL] | MIC (Escherichia Coli NK12) [µg/mL] | antibacterial activity (in words) [4] | MIC against strain A compared with RFX [2]
1 | CO[C@H]1/C=C/O[C@@]2(C)Oc3c(C)c(O)c4c(O)c(c5c(nc6cc(CO)ccn65)c4c3C2=O)NC(=O)/C(C)=C\C=C\[C@H](C)[C@H](O)[C@@H](C)[C@@H](O)[C@@H](C)[C@H](OC(C)=O)[C@@H]1C [Example 1, 4′-methylol-4-desoxypyrido[1′,2′-1,2]imidazo[5,4-c]rifamycin SV] | 8 to 16 (≈ 9.98 to 20 µM) | 8 to 16 (≈ 9.98 to 20 µM) | 2 to 4 (≈ 2.49 to 4.99 µM) | 4 to 8 (≈ 4.99 to 9.98 µM) | – | –
2 | CO[C@H]1/C=C/O[C@@]2(C)Oc3c(C)c(O)c4c(O)c(c5c(nc6cc(C=O)ccn65)c4c3C2=O)NC(=O)/C(C)=C\C=C\[C@H](C)[C@H](O)[C@@H](C)[C@@H](O)[C@@H](C)[C@H](OC(C)=O)[C@@H]1C [Example 2, 4′-formyl-4-desoxypyrido[1′,2′-1,2]imidazo[5,4-c]rifamycin SV] | > 64 | > 64 | > 64 | > 64 | – | –
3 | CO[C@H]1/C=C/O[C@@]2(C)Oc3c(C)c(O)c4c(O)c(c5c(nc6cc(/C=N/N7CCCCC7)ccn65)c4c3C2=O)NC(=O)/C(C)=C\C=C\[C@H](C)[C@H](O)[C@@H](C)[C@@H](O)[C@@H](C)[C@H](OC(C)=O)[C@@H]1C [Example 4, 4′-[(1-piperidinyl)iminomethyl]-4-desoxypyrido[1′,2′-1,2]imidazo[5,4-c]rifamycin SV] | 4 to 8 (≈ 4.54 to 9.07 µM) | 0.03 to 0.06 (≈ 0.034 to 0.068 µM) | 0.062 to 0.125 (≈ 0.0703 to 0.142 µM) | 8 to 16 (≈ 9.07 to 18.1 µM) | – | –
4 | CO[C@H]1/C=C/O[C@@]2(C)Oc3c(C)c(O)c4c(O)c(c5c(nc6cc(/C=N/N(C)C)ccn65)c4c3C2=O)NC(=O)/C(C)=C\C=C\[C@H](C)[C@H](O)[C@@H](C)[C@@H](O)[C@@H](C)[C@H](OC(C)=O)[C@@H]1C [Example 5, 4′-[(N,N-dimethylamino)iminomethyl]-4-desoxypyrido[1′,2′-1,2]imidazo[5,4-c]rifamycin SV] | 32 to 64 (≈ 38 to 76 µM) | 0.03 to 0.06 (≈ 0.0356 to 0.0713 µM) | 0.062 to 0.125 (≈ 0.0736 to 0.148 µM) | 32 to 64 (≈ 38 to 76 µM) | – | –
5 | CO[C@H]1/C=C/O[C@@]2(C)Oc3c(C)c(O)c4c(O)c(c5c(nc6cc(/C=N/NC(=O)c7ccncc7)ccn65)c4c3C2=O)NC(=O)/C(C)=C\C=C\[C@H](C)[C@H](O)[C@@H](C)[C@@H](O)[C@@H](C)[C@H](OC(C)=O)[C@@H]1C [Example 6, 4′-[(4-carboxyamidopyridyl)iminomethyl]-4-desoxypyrido[1′,2′-1,2]imidazo[5,4-c]rifamycin SV] | > 64 | > 64 | 8 to 16 (≈ 8.71 to 17.4 µM) | 32 to 64 (≈ 34.8 to 69.6 µM) | – | –
6 | CO[C@H]1/C=C/O[C@@]2(C)Oc3c(C)c(O)c4c(O)c(c5c(nc6ccc(/C=N/N(C)C)cn65)c4c3C2=O)NC(=O)/C(C)=C\C=C\[C@H](C)[C@H](O)[C@@H](C)[C@@H](O)[C@@H](C)[C@H](OC(C)=O)[C@@H]1C [Example 7, 5′-[(N,N-dimethylamino)iminomethyl]-4-desoxypyrido[1′,2′-1,2]imidazo[5,4-c]rifamycin SV] | 32 to 64 (≈ 38 to 76 µM) | 0.03 to 0.06 (≈ 0.0356 to 0.0713 µM) | 0.062 to 0.125 (≈ 0.0736 to 0.148 µM) | 32 to 64 (≈ 38 to 76 µM) | – | –
7 | CO[C@H]1/C=C/O[C@@]2(C)Oc3c(C)c(O)c4c(O)c(c5c(nc6ccc(/C=N/N7CCCCC7)cn65)c4c3C2=O)NC(=O)/C(C)=C\C=C\[C@H](C)[C@H](O)[C@@H](C)[C@@H](O)[C@@H](C)[C@H](OC(C)=O)[C@@H]1C [Example 8, 5′-[(1-piperidinyl)iminomethyl]-4-desoxypyrido[1′,2′-1,2]imidazo[5,4-c]rifamycin SV] | 4 to 8 (≈ 4.54 to 9.07 µM) | 0.03 to 0.06 (≈ 0.034 to 0.068 µM) | 0.062 to 0.125 (≈ 0.0703 to 0.142 µM) | 8 to 16 (≈ 9.07 to 18.1 µM) | – | –
8 | CO[C@H]1/C=C/O[C@@]2(C)Oc3c(C)c(O)c4c(O)c(c5c(nc6ccc(/C=N/N7CCCCC7)cn65)c4c3C2=O)NC(=O)/C(C)=C\C=C\[C@H](C)[C@H](O)[C@@H](C)[C@@H](O)[C@@H](C)[C@H](O)[C@@H]1C [Example 11, 25-desacetyl-5′-[(1-piperidinyl)iminomethyl]-4-desoxypyrido[1′,2′-1,2]imidazo[5,4-c]rifamycin SV] | 32 to 64 (≈ 38.1 to 76.2 µM) | 8 to 16 (≈ 9.52 to 19 µM) | 4 to 8 (≈ 4.76 to 9.52 µM) | 32 to 64 (≈ 38.1 to 76.2 µM) | – | –
9 | CO[C@H]1/C=C/O[C@@]2(C)Oc3c(C)c(O)c4c(O)c(c5c(nc6ccc(/C=N/N(C)C)cn65)c4c3C2=O)NC(=O)/C(C)=C\C=C\[C@H](C)[C@H](O)[C@@H](C)[C@@H](O)[C@@H](C)[C@H](O)[C@@H]1C [Example 12, 25-desacetyl-5′-[(N,N-dimethylamino)iminomethyl]-4-desoxypyrido[1′,2′-1,2]imidazo[5,4-c]rifamycin SV] | > 64 | 8 to 16 (≈ 10 to 20 µM) | 4 to 8 (≈ 5 to 10 µM) | > 64 | – | –
10 | CO/N=C/c1ccn2c(c1)nc1c3c4c5c(C)c(O)c3c(O)c(c12)NC(=O)/C(C)=C\C=C\[C@H](C)[C@H](O)[C@@H](C)[C@@H](O)[C@@H](C)[C@H](OC(C)=O)[C@H](C)[C@@H](OC)/C=C/O[C@@](C)(O5)C4=O [Example 13, 4′-(N-methoxy)-iminomethyl-4-desoxypyrido[1′,2′-1,2]imidazo[5,4-c]rifamycin SV] | 8 to 16 (≈ 9.65 to 19.3 µM) | < 0.015 | < 0.015 | 8 to 16 (≈ 9.65 to 19.3 µM) | fully comparable to that of RFX | lower than RFX
11 | CO[C@H]1/C=C/O[C@@]2(C)Oc3c(C)c(O)c4c(O)c(c5c(nc6cc(/C=N/C(C)C)ccn65)c4c3C2=O)NC(=O)/C(C)=C\C=C\[C@H](C)[C@H](O)[C@@H](C)[C@@H](O)[C@@H](C)[C@H](OC(C)=O)[C@@H]1C [Example 14] | 8 to 16 (≈ 9.51 to 19 µM) | 0.03 to 0.06 (≈ 0.0357 to 0.0713 µM) | 8 to 16 (≈ 9.51 to 19 µM) | 8 to 16 (≈ 9.51 to 19 µM) | fully comparable to that of RFX | lower than RFX
12 | CO[C@H]1/C=C/O[C@@]2(C)Oc3c(C)c(O)c4c(O)c(c5c(nc6cc(/C=N/N7CCOCC7)ccn65)c4c3C2=O)NC(=O)/C(C)=C\C=C\[C@H](C)[C@H](O)[C@@H](C)[C@@H](O)[C@@H](C)[C@H](OC(C)=O)[C@@H]1C [Example 15] | 8 to 16 (≈ 9.05 to 18.1 µM) | < 0.015 | 8 to 16 (≈ 9.05 to 18.1 µM) | 4 to 8 (≈ 4.52 to 9.05 µM) | fully comparable to that of RFX | lower than RFX
